Here are results for seven compounds from ChEMBL document CHEMBL1201862, “PubChem BioAssay data set” (2004).

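Grown in 96-well plates, cells were treated for 48 hours with each compound at five concentrations. Insufficient inhibition: endpoint recorded as highest concentration tested. Here, GI50 denotes the concentration required for 50% inhibition of growth.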 Activity calls are given as the source filed them. Rule as the data show it: active = GI50 up to about 1.1 µM and inactive = higher.

Test systems include 786-0; A549; EKVX; HOP-62; K562; KM12; M14; MCF7; MOLT-4; NCI-H226; NCI/ADR-RES; OVCAR-3; OVCAR-5; RPMI-8226; RXF 393; SF-539; SK-MEL-5; SK-OV-3; SNB-19; U-251.
What all share (assay): NCI anticancer screen, dose series, 48 h

On to `COc1ccccc1/C=C1\CCC(CN(C)C)C1=O` (stereo not given), for which the GI50 is 2.16 µM (inactive) with 786-0; 20.1 µM (inactive) with A549; 15 µM (inactive) in the test with EKVX; 19.5 µM (inactive) in the test on HOP-62; 2.28 µM (inactive) with K562; 3.75 µM (inactive) in the test on KM12. Besides, the GI50 is 3.64 µM (inactive) with M14; 2.12 µM (inactive) in the test on MCF7; 4.61 µM (inactive) in the test with MOLT-4; 11.4 µM (inactive) in the test with NCI-H226; 7.24 µM (inactive) with NCI/ADR-RES; 5.38 µM (inactive) with OVCAR-3. In addition, the GI50 is 12.7 µM (inactive) in the test with OVCAR-5; 2.05 µM (inactive) in the test on RPMI-8226; 3.84 µM (inactive) in the test on RXF 393; 7.41 µM (inactive) in the test with SF-539; 12.4 µM (inactive) in the test on SK-MEL-5; 19.4 µM (inactive) in the test on SK-OV-3. Also, the GI50 is 17.1 µM (inactive) with SNB-19 and 11.1 µM (inactive) in the test on U-251.

As to `O=C(O)C1(CC(CCCN2CCCCC2)c2ccccc2)CCCC1` (stereo not given), the GI50 with 786-0, in the test on A549, in the test on EKVX, in the test on HOP-62, with K562 and with KM12 was > 100 µM (inactive) each time. Further, the GI50 in the test on M14 was > 100 µM (inactive); with MCF7 it was > 100 µM (inactive); with MOLT-4, > 100 µM (inactive); in the test on NCI-H226, > 100 µM (inactive); with NCI/ADR-RES, > 100 µM (inactive); in the test on OVCAR-3, 41.8 µM (inactive). Besides, the GI50 in the test with OVCAR-5, in the test with RPMI-8226, in the test with RXF 393, in the test on SF-539, in the test with SK-MEL-5 and in the test on SK-OV-3 was > 100 µM (inactive) each time. The GI50 with SNB-19 and in the test on U-251 was > 100 µM (inactive) in each case.

Take `CC(Oc1ccc(Cl)cc1Cl)C(=O)NN1C(=O)CSC1c1ccc(Cl)cc1` (stereo not given): the GI50 with 786-0 is 53.6 µM (inactive); with A549 it was 31 µM (inactive); in the test on EKVX it was 80 µM (inactive); with HOP-62 it was 33.6 µM (inactive); with K562, 44.1 µM (inactive); in the test on KM12, 86.3 µM (inactive). Moreover, the GI50 with M14 was 47.1 µM (inactive); in the test with MCF7, 36.8 µM (inactive); in the test on MOLT-4 it was 21.7 µM (inactive); in the test with NCI-H226 it was 17.6 µM (inactive); with NCI/ADR-RES, > 100 µM (inactive); in the test on OVCAR-3, 54.5 µM (inactive). In addition, the GI50 in the test with OVCAR-5 is > 100 µM (inactive); in the test with RPMI-8226 it was 35.7 µM (inactive); in the test with RXF 393, 27 µM (inactive); with SF-539, 20.5 µM (inactive); in the test on SK-MEL-5, 49.7 µM (inactive); with SK-OV-3, 54.3 µM (inactive). The values for the GI50 in the test on SNB-19 and in the test with U-251 were 30.4 µM (inactive) and 40.3 µM (inactive), respectively.

As to `O=[N+]([O-])c1cc(C2(N3CCCCC3)CCCCC2)sc1Br`, the GI50 in the test on 786-0 was 3.94 µM (inactive); with A549 it was 17.1 µM (inactive); with EKVX it was 9.16 µM (inactive); in the test with HOP-62 it was 6 µM (inactive); in the test on K562, 2.92 µM (inactive); in the test with KM12, 6.49 µM (inactive). The GI50 in the test with M14 was 7.69 µM (inactive); with MCF7 it was 2.83 µM (inactive); with MOLT-4 it was 1.8 µM (inactive); in the test with NCI-H226, 3.33 µM (inactive); in the test with NCI/ADR-RES it was 3.09 µM (inactive); with OVCAR-3, 2.72 µM (inactive). For the same compound, the GI50 was 19.5 µM (inactive) in the test with OVCAR-5; 1.74 µM (inactive) in the test with RPMI-8226; 3.66 µM (inactive) in the test on RXF 393; 2.52 µM (inactive) in the test with SF-539; 5.04 µM (inactive) in the test on SK-MEL-5; 16.3 µM (inactive) in the test on SK-OV-3. The values for the GI50 in the test on SNB-19 and with U-251 were 14.1 µM (inactive) and 6.01 µM (inactive), respectively.

Take `COCCOC1=C(Cl)C(=O)c2c(O)ccc(O)c2C1=O`: the GI50 in the test with 786-0 was 1.62 µM (inactive); with A549, 8.34 µM (inactive); in the test on EKVX, 4.97 µM (inactive); in the test on HOP-62, 3.33 µM (inactive); with K562, 0.635 µM (active); in the test on KM12 it was 9.48 µM (inactive). The GI50 with M14 was 1.71 µM (inactive); in the test on MCF7 it was 1.21 µM (inactive); in the test with MOLT-4, 0.105 µM (active); in the test on NCI-H226 it was 12.1 µM (inactive); with NCI/ADR-RES it was 2.84 µM (inactive); in the test with OVCAR-3, 1.09 µM (active). Besides, the GI50 in the test on OVCAR-5 is 6.93 µM (inactive); in the test with RPMI-8226, 0.741 µM (active); in the test with RXF 393 it was 0.798 µM (active); with SF-539, 2.16 µM (inactive); in the test on SK-MEL-5, 1.95 µM (inactive); in the test with SK-OV-3 it was 16.8 µM (inactive). The values for the GI50 with SNB-19 and in the test on U-251 were 14.6 µM (inactive) and 4.75 µM (inactive), respectively.

As for `CN(C)CCNC(=O)c1c(O)ccc2c1c1c(n2CCc2ccccc2)C(=O)c2ccccc2C1=O`, the GI50 in the test on 786-0 was 4.36 µM (inactive); in the test on A549, 8.53 µM (inactive); in the test with EKVX, 14.6 µM (inactive); with HOP-62 it was 10.6 µM (inactive); with K562, 2.39 µM (inactive); in the test with KM12 it was 4.15 µM (inactive). For the same compound, the GI50 in the test with M14 was 1.93 µM (inactive); with MCF7, 3.37 µM (inactive); in the test on MOLT-4, 4.42 µM (inactive); in the test on NCI-H226, 16.8 µM (inactive); with NCI/ADR-RES it was 13.5 µM (inactive); with OVCAR-3, 12.9 µM (inactive). For the same compound, the GI50 in the test with OVCAR-5 was 15.5 µM (inactive); in the test with RPMI-8226, 2.75 µM (inactive); with RXF 393, 0.302 µM (active); in the test on SF-539, 5.37 µM (inactive); with SK-MEL-5 it was 2.96 µM (inactive); in the test with SK-OV-3, 16.4 µM (inactive). For the same compound, the GI50 in the test with SNB-19 is 9.68 µM (inactive); in the test with U-251, 4.4 µM (inactive).

For `C=CCn1c(N)c(C#N)c(C#N)c1CCC`, the GI50 is > 100 µM (inactive) in the test on 786-0; > 100 µM (inactive) in the test on A549; 42.7 µM (inactive) with EKVX; > 100 µM (inactive) with HOP-62; > 100 µM (inactive) with K562; > 100 µM (inactive) in the test with KM12. The GI50 in the test with M14 was > 100 µM (inactive); in the test on MCF7 it was > 100 µM (inactive); in the test on MOLT-4 it was 43.2 µM (inactive); in the test on NCI-H226 it was > 100 µM (inactive); in the test with NCI/ADR-RES it was > 100 µM (inactive); in the test on OVCAR-3, 74.6 µM (inactive). For the same compound, the GI50 with OVCAR-5, in the test with RPMI-8226, in the test on RXF 393, in the test with SF-539, in the test on SK-MEL-5 and in the test on SK-OV-3 was > 100 µM (inactive) in each case. Further, the GI50 in the test with SNB-19 and with U-251 was > 100 µM (inactive) each time.
